Where a name gives a salt, the structure may show the parent alone.
What was measured:
Sigma-1 receptor = Sigma-1 receptor (Cavia porcellus (Guinea pig), UniProt Q60492); assay: Sigma-1 receptor binding affinity test ([3H]-(+)-pentazocine displacement, guinea pig cerebral cortex membranes); conditions: [3H]-(+)-pentazocine 10 nM, 25° C., 180 minutes; read-out: Sigma1R Ki
Description: Guinea pigs (provided by Beijing Vital River Laboratory Animal Technology Co., Ltd.) were decapitated, and the operations were carried out on ice. The cerebral cortex was quickly harvested and pooled into a centrifuge tube. A suitable amount of buffer (0.05M Tris-HCl with 0.32M sucrose) was added to the tube, and the tissue was homogenized using a homogenizer (IKA, Ultra Turrax T25 Digital) at setting 4 for 3˜4 seconds, repeated four times. After homogenization, solution B was added to adjust the volume to 10 mL/g. The weight of the centrifuge tubes was balanced, and then they were centrifuged at 1000 g for 10 minutes using a high-speed refrigerated centrifuge. The supernatant was collected and adjusted to 2 mL/g with solution B, followed by centrifugation at 1000 g and 4° C. for 10 minutes. The supernatant was then centrifuged at 18000 rpm and 4° C. for 25 minutes. The pellet was resuspended in solution B to a final volume of 3 mL/g and incubated in a water bath at 25° C. for 15 minutes. After incubation, the suspension was centrifuged at 18000 rpm and 4° C. for 45 minutes. The pellet was stored at −80° C. for future use.
An appropriate amount of homogenization buffer was added to the prepared membrane, and was dispersed into a suspension using a homogenizer, protein concentration was measured to be 4 mg/ml. 100 micrograms of protein were added to each well of a 96-well plate, with a volume of 90 μl. […] [3H]-(+)-pentazocine (Perkin-Elmer, Cat #NET1056250UC) was added to each well (final concentration of 10 nM). The 96-well plate was incubated in a constant temperature water bath (25° C., 180 minutes). […] After washing, the samples were dried in a 37° C. oven.

[1] = system: motor balance ability of rats; assay: Rat rotarod test (motor balance ability); type: in vivo; conditions: 15 rpm
Description: Placing rats on a continuously rotating rod causes them to move immediately in the opposite direction of the rod's motion. […] During the formal experiment, the time the rats stay on the rotarod is used as an indicator to measure their motor balance ability. This experiment aims to explore the impact of compound 37 at doses ranging from 10 to 300 mg/kg on the motor balance ability of rats in the rotarod test.
After administration of the test substance to the rats, they are placed on the rotarod fatigue tester, and the average time spent on the rod after three tests is recorded and analyzed.
Calculate the Maximum Possible Effect on Motor Balance Ability %: Maximum Possible Effect on Motor Balance Ability %=(1−test group/vehicle)×100%
Note: The motor balance ability of the vehicle group is considered as 0%, and the Maximum Possible Effect on Motor Balance Ability % for each group is calculated based on this standard.

[2] = system: Spinal Nerve Ligation (SNL) model; assay: Spinal Nerve Ligation (SNL) model, mechanical pain threshold by Von Frey filaments; type: in vivo; conditions: rat, oral administration (i.g.), 100 mg/kg, mechanical pain threshold ipsilateral hind paw
Description: It is a type of chronic pain characterized by features such as spontaneous pain, hyperalgesia, abnormal pain, and sensory disturbances. Following nerve damage, neuropathic pain can persist, and its characteristics include hypersensitive responses to stimuli […], the presence of abnormal sensations (allodynia), and painful responses to non-harmful stimuli […]. The Spinal Nerve Ligation (SNL) model involves the tight ligation of the L5 and L6 spinal nerves using sutures.
In this experiment, pregabalin at a dose of 100 mg/kg was used as a positive control to compare the analgesic effect of the test compound. After administration, the mechanical pain threshold in the ipsilateral hind paw of the rat was tested using Von Frey filaments. The change in mechanical pain threshold before and after administration was used to determine whether the test compound at 100 mg/kg has a neuropathic pain-relieving effect in the SNL model.

Chain of Sigma-1 receptor (Q60492 whole entry): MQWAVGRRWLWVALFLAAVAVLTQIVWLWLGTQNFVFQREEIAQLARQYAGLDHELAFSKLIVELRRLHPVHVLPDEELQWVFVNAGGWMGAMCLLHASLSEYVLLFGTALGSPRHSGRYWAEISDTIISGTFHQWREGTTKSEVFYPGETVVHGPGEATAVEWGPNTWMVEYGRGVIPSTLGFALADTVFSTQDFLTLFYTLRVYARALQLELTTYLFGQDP

| Structure (SMILES) | Ki (Sigma-1 receptor) [nM] | further results |
| --- | --- | --- |
| Fc1ccc(-c2cc(CN3CCOCC3)on2)cc1F [Compound 19] | 172 |  |
| Fc1ccc(-c2cc(CN3CC[Se]CC3)on2)cc1F [Compound 20] | 48.9 |  |
| OC1CCN(Cc2cc(-c3ccc(F)c(F)c3)no2)CC1 [Compound 37] |  | change in the time spent on the rotarod compared to the vehicle ([1]; oral 15 minutes prior, 10-300 mg/kg): no significant change; Maximum Possible Effect on Motor Balance Ability ([1]; oral 15 minutes prior, first of four doses in 10-300 mg/kg): −6%; Maximum Possible Effect on Motor Balance Ability ([1]; oral 15 minutes prior, fourth of four doses in 10-300 mg/kg): −6%; Maximum Possible Effect on Motor Balance Ability ([1]; oral 15 minutes prior, second of four doses in 10-300 mg/kg): 11%; Maximum Possible Effect on Motor Balance Ability ([1]; oral 15 minutes prior, third of four doses in 10-300 mg/kg): −6% |
| O[C@H]1CCN(Cc2cc(-c3ccc(F)c(F)c3)no2)C1 [Compound 38] | 378 |  |
| OC[C@H]1CCCN1Cc1cc(-c2ccc(F)c(F)c2)no1 [Compound 40] | 190 |  |
| OC[C@@H]1CCCN1Cc1cc(-c2ccc(F)c(F)c2)no1 [Compound 41] | 34 |  |
| O[C@@H]1CCN(Cc2cc(-c3ccc(Cl)c(Cl)c3)no2)C1 [Compound 43] | 7.97 |  |
| OC[C@H]1CCCN1Cc1cc(-c2ccc(Cl)c(Cl)c2)no1 [Compound 44] | 19 |  |
| OCCC1CCN(Cc2cc(-c3ccc(Cl)c(Cl)c3)no2)CC1 [Compound 47] | 0.74 |  |
| CC1COCC(C)N1CCOCc1cc(-c2ccc(Cl)c(Cl)c2)no1 (centres unmarked) [Compound 77] | 14.9 |  |
| O=C1CCN(Cc2cc(-c3ccc(F)c(F)c3)no2)CC1 [Compound 88] | 959 |  |
| CC(C)C[C@H](CN)CC(=O)O [Pregabalin, pregabalin] |  | analgesic activity in the SNL model [2]: some analgesic activity |
| Cc1cccc([C@H](C)c2cnc[nH]2)c1C [dexmedetomidine hydrochloride injection, dexmedetomidine hydrochloride, reference compound] |  | Maximum Possible Effect on Motor Balance Ability ([1]; subcutaneous injection 30 μg/kg, 15 minutes prior, vs vehicle): 62% |
